Where two headings read alike, the source gives them in different places.
T1: CD95/PLCγ1 interaction (Homo sapiens, UniProt P19174)
T1 construct: The PLCγ1-SH3 domain (aa 790-851) (C); expressed in transfected cells; host or cells: HEK293T
T1 sequence (P19174 790-851): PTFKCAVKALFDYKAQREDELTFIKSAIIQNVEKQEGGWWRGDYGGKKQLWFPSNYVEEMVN

T2: PLCγ1-SH3 domain (aa 790-851) fused to F1 fragment of Renilla luciferase, P19174
T2 chain: T1 sequence (P19174 790-851)

B1: minCID (minimal CID, amino acids 182 to 188 of CD95, TCRKHRK) (peptide)
peptide: TCRKHRK
modifications: not checked
B2: TAT-minCID (cell-penetrating domain TAT fused to minCID, TCRKHRK) (peptide)
peptide: TCRKHRK
modifications: not checked
B3: TAT-CID (cell-penetrating domain of TAT fused to the calcium-inducing domain of CD95, amino acids 175 to 210) (peptide)
peptide: KRKEVQKTCRKHRKENQGSHESPTLNPETVAINLSD
modifications: not checked

Experiments:
CD95/PLCγ1 interaction = molecular target: T1, CD95/PLCγ1 interaction; test: Renilla luciferase protein-fragment complementation assay (PCA), CD95-CID/PLCγ1-SH3; format: cell-based; details: for effect on interaction of CD95 with PLCγ1: result in words
Experimental: FIG. 1. […] A. Schematic representation of the protein-fragment complementation assay used with CD95-CID or -DD fused to F2 and PLCγ1-SH3 or FADD-DD fused to F1 to identify inhibitors from the Prestwick library. The Renilla luciferase enzyme was divided into amino-terminal and carboxy-terminal fragments (yellow domains) and fused to the indicated domains. B. Compounds from the Prestwick library were tested against CD95/PLCγ1 or CD95/FADD PCA. […] Inhibition of CD95/FADD interaction is also assessed.
Light emission indicates refolding of the luciferase and reconstitution of enzyme activity through protein/protein interactions. […] Data represent means±SD of three independent experiments. […] Then, the indicated peptides fused with or without the cell-penetrating domain TAT were incubated at the indicated concentrations for 4 hrs and luminescence was assessed. Data represent means±SD of three independent experiments. […].
HEK293T cells were electroporated with 5 μg of DNA using BTM-830 electroporation generator (BTX Instrument Division, Harvard Apparatus) with 10 μg of DNA. Transfected cells were cultured for 24 hrs prior to protein complementation assay analyses as previously described (17). Briefly, transfected cells (10^6) were washed, resuspended in 100 μl PBS and deposited in OptiPlate-96 (PerkinElmer, Waltham, Mass., USA). Coelenterazine-h (5 μM, Sigma) was injected to each well and renilla luciferase activity was monitored for the first 10 seconds using Infinite200Pro (Tecan, Männedorf, Switzerland).
A peptide consisting of the cell-penetrating domain of TAT fused to CID (TAT-CID) binds the SH3 domain of PLCγ1 and thereby, prevents PLCγ1/CD95 interaction and the subsequent induction of the Ca^2+ response (16). […] Briefly, the Renilla luciferase enzyme was divided into two fragments (F1 and F2 fragments). […] Interaction of CD95 with PLCγ1 or FADD allows the reconstitution of RLuc and subsequent light emission (FIG. 1A). The chemical Prestwick library was screened against these PCAs (FIG. 1B). […] These molecules are designated CID inhibitors or CIDINH.

activated PBLs = test: CD95-mediated cell migration / endothelial transmigration of activated PBLs (Boyden chamber); format: cell-based, human; details: result in words
Experimental: FIG. 3. Drugs inhibit CD95-mediated Ca′ response and cell migration. A. Activated PBLs were loaded with FuraPE3-AM (1 μM) and pre-treated for 1 h with non-toxic concentrations of indicated compounds. T-cells were then stimulated with cl-CD95L (100 ng/mL; arrow). Ratio values (R) were normalized to pre-stimulated values (R0) to yield R/R0 values. Data represent means±the SD. B. Left panel: using Boyden chamber assay, cell migration of parental H9 cells and their counterpart lacking CD95 (CD95-KO) was assessed. Right panel: activated PBLs were pre-incubated in the presence or absence of the indicated drugs for 1 hour using non-toxic concentration and the CD95-mediated cell migration was assessed by Boyden chambers. C. Th17 cells were sorted from blood of healthy donors (peripheral blood mononuclear cell). FACS analyses showing the efficiency of Th17 (CCR6^+ CXCR3^−) cell sorting from healthy donors PBMCs. D. Th17 cells were pre-incubated in the presence or absence of the indicated drugs for 1 hour using non-toxic concentration and cell migration was assessed by Boyden chambers. After membrane hydration of Boyden chambers (Millipore, Molsheim, France) containing 8 μm pore membranes, 10^5 cells were added to the top chamber. The bottom chamber was filled with low serum (1%)-containing medium in the presence or absence of cl-CD95L (100 ng/ml). Cells were incubated for 24 h. To quantify invasion, cells were fixed with methanol and stained with Giemsa. Stained cells were then removed from the top-side of the membrane using a cotton-tipped swab and five representative pictures for each insert were taken of the invading cells from the reverse side. For each experiment, invading cells were lysed and absorbance at 560 nm was measured. Membranes (3 μm pore size) of a Boyden chamber were hydrated in sterile D-PBS (Millipore, Molsheim, France). Thereafter, activated T-lymphocytes (10^6) were added to the top chamber on a confluent monolayer of HUVEC in a low serum (1%)-containing medium. The bottom chamber was filled with low serum (1%)-containing medium in presence or absence of 100 ng/ml of cl-CD95L. In experiments using human sera, 500 μl of serum from either healthy donors or SLE patients was added to the lower chamber. Cells were cultured for 24 h at 37° C. in a 5% CO2, humidified incubator. Transmigrated cells were counted in the lower reservoir by flow cytometry using a standard of 2.5×10^4 fluorescent beads (Flow-count, Beckman Coulter).

[1] = tested on: CD95-mediated Ca2+ signaling pathway in Tfh cells; test: CD95-mediated Ca2+ response in Tfh cells; format: cell-based, human; details: drugs 1 μM for 1 h, s-CD95L 100 ng/mL, Fluo2 LR-AM
[2] = tested on: CD95-mediated Ca2+ signaling pathway in Th17 cells; test: CD95-mediated Ca2+ response in Th17 cells; format: cell-based, human; details: drugs 1 μM for 1 h, s-CD95L 100 ng/mL, Fluo2 LR-AM
Experimental: A. Activated PBLs were loaded with FuraPE3-AM (1 μM) and pre-treated for 1 h with non-toxic concentrations of indicated compounds. T-cells were then stimulated with thapsigargin (1 μM; arrow). Ratio values (R) were normalized to pre-stimulated values (R0) to yield R/R0 values. Data represent means±the SD. B. Th17 cells were sorted from healthy donors and loaded with FuraPE3-AM (1 μM). Th17 cells were pre-treated for 1 h with non-toxic concentrations of ritonavir or diflunisal (1 μM). T-cells were then stimulated with cl-CD95L (100 ng/mL; arrow). Ratio values (R) were normalized to pre-stimulated values (R0) to yield R/R0 values. Data represent means±the SD.
Human PBLs were sorted using flow cytometry cell sorting to isolate Th17 (A) according to their phenotype (CD3+CD4+CXCR5−CCR6+CXCR3−CD45RA−) and Tfh (B) (CD4+CXCR5+ICOS+PD−1+CD45RA−). Cells were pre-incubated with Indicated drugs (1 μM) for 1 h and then stimulated with 100 ng/mL of s-CD95L. [Ca2+]CYT was assessed in Fluo2 LR-AM (3 μM)-loaded cells. Data represent means±the SD of 3 independent experiments.
Peripheral blood mononuclear cells (PBMC) were isolated from buffy-coat by density gradient using lymphocyte separation medium (Eurobio, Les Ulis, France). PBMCs were then subjected to selection using a cocktail of antibody-coated magnetic beads: CCR6^+ CXCR3^−CD4^+ cells (Th17 cells) were sorted with Human Th17 Enrichment kit (STEMCELL Technologies, Grenoble, France). Cell sorting efficiency was evaluated by FACS.
T-cells were loaded with Fura-PE3-AM (1 μM) at room temperature for 30 min in Hank's Balanced Salt Solution (HBSS). After washing, the cells were incubated for 15 min in the absence of Fura-PE3-AM to complete de-esterification of the dye. Cells were placed in a temperature controlled chamber (37° C.) of an inverted epifluorescence microscope (Olympus IX70) equipped with an x40 UApo/340-1.15 W water-immersion objective (Olympus), and fluorescence micrograph images were captured at 510 nm and 12-bit resolution by a fast-scan camera (CoolSNAP fx Monochrome, Photometrics). To minimize UV light exposure, a 4×4 binning function was used. Fura-PE3 was alternately excited at 340 and 380 nm, and the ratios of the resulting images (emission filter at 520 nm) were produced at constant intervals (10 seconds). The Fura-PE3 ratio (Fratio 340/380) images were analyzed offline with Universal Imaging software, including Metafluor and Metamorph. Fratio reflects the intracellular Ca^2+ concentration changes. Each experiment was repeated at least 3 times, and the average of more than 20 single-cell traces per experiment was analyzed.

[3] = molecular target: T2, PLCγ1-SH3 domain (aa 790-851) fused to …; test: Renilla luciferase protein-fragment complementation assay in non-permeabilized HEK cells (CID-CD95-F2 / PLCγ1-SH3-F1), peptide 4 h; displaces CID-CD95
[4] = molecular target: T2, PLCγ1-SH3 domain (aa 790-851) fused to …

Molecule | effect on interaction of CD95 with PLCγ1 (CD95/PLCγ1 interaction) | effect on endothelial transmigration of PBLs (activated PBLs) | effect on CD95-mediated Ca2+ signaling pathway in Tfh cells [1] | effect on CD95-mediated Ca2+ signaling pathway in Th17 cells [2] | other results
COc1ccc(-c2cc(=S)ss2)cc1 [anethole, 5-(4-methoxyphenyl)dithiole-3-thione] | efficiently prevented | inhibited |  |  | 
COC(=O)N[C@H](C(=O)N[C@@H](Cc1ccccc1)[C@@H](O)CN(Cc1ccc(-c2ccccn2)cc1)NC(=O)[C@@H](NC(=O)OC)C(C)(C)C)C(C)(C)C [atazanavir] |  |  | efficiently abrogated | efficiently abrogated | 
CC(C)CN(C[C@@H](O)[C@H](Cc1ccccc1)NC(=O)O[C@H]1CO[C@H]2OCC[C@H]21)S(=O)(=O)c1ccc(N)cc1 [darunavir] |  |  | efficiently abrogated | efficiently abrogated | 
COc1cccc2c1C(=O)c1c(O)c3c(c(O)c1C2=O)C[C@@](O)(C(C)=O)C[C@@H]3O[C@H]1C[C@H](N)[C@H](O)[C@H](C)O1 [daunorubicin, (7S,9S)-9-acetyl-7-[(2R,4S,5S,6S)-4-amino-5-hydroxy-6-methyloxan-2-yl]oxy-6,9,11-trihydroxy-4-methoxy-8,10-dihydro-7H-tetracene-5,12-dione] | efficiently prevented | inhibited |  |  | 
Cc1cccc(C)c1OCC(=O)N[C@@H](Cc1ccccc1)[C@@H](O)C[C@H](Cc1ccccc1)NC(=O)[C@H](C(C)C)N1CCCNC1=O [lopinavir] |  |  | efficiently abrogated | efficiently abrogated | 
CN(CCOc1ccc(CC2SC(=O)NC2=O)cc1)c1ccccn1 (stereo not shown) [rosiglitazone, 5-[[4-[2-[methyl(pyridin-2-yl)amino]ethoxy]phenyl]methyl]-1,3-thiazolidine-2,4-dione] | efficiently prevented | inhibited |  |  | 
TAT-minCID: heptapeptide minCID (TCRKHRK, SEQ ID NO:1) fused with the cell-penetrating domain TAT (not fully specified; chains of the parent or of the whole protein) |  |  |  |  | IC50 (CD95/PLCγ1 interaction; PCA in HEK cells, peptides incubated for 4 hours, read-out: IC50, disruption of CD95/PLCγ1 interaction by peptides): 11.5 µM
B1 |  |  |  |  | IC50 [3]: 35.5 µM
B2 |  |  |  |  | IC50 [4]: 11.5 µM
B3 |  |  |  |  | IC50 [4]: 10.8 µM
